Measured values published in patent US6762046B2, “Polypeptide having β-fructofuranosidase activity” (Kabushiki Kaisha Hayashibara Seibutsu Kagaku Kenkyujo, priority 1996, dated 2004).

Columns and labels:
[1] = system: polypeptide having β-fructofuranosidase activity; test: Specificity for fructofuranosyl transfer from sucrose to acceptors (TLC); type: biochemical, Bacillus sp. V230; parameters: key: Compared with a reaction mixture of sucrose, “−” means unchanged; +: the size and color of a spot for fructofuranosyl acceptor reduced slightly, and spot for fructofuransyl-transferred product was slightly detected; ++: the size and color of a spot for fructofuranosyl acceptor more reduced and a spot for fructofuransyl transferred product was clearly observed; conditions: acceptor and sucrose (donor) in equal weight, 10 w/v %, 2 units/g sucrose of polypeptide of Example 2-1, 40° C., pH 5.5, 24 hours
Method: Using as fructofuranosyl acceptors the monosaccharides, oligosaccharides and alcohols in Table 1, the specificity of the present polypeptide for fructofuranosyl transfer was studied: Any one of the fructofuranosyl acceptors in Table 1 and sucrose as a fructofuranosyl donor were mixed in an equal amount by weight, and the mixture was dissolved in water into a 10 w/v % aqueous solution which was then mixed with 2 units/g sucrose, d.s.b., of a polypeptide obtained by the method in Example 2-1, and reacted at 40° C. and pH 5.5 for 24 hours. Thereafter, the reaction mixture was separated by TCL similarly as above, and the plate was colored by spraying 0.5 N phosphate solution containing 0.2 w/v % naphthoresorcinol, and the plate was heated at 110° C. for 5 min to color and detect fructofuranosyl-transferred products.

[2] = system: polypeptide having β-fructofuranosidase activity; test: Action of the polypeptide on saccharide substrates (release of fructose, TLC); type: biochemical, Bacillus sp. V230; conditions: 2 w/v % substrate, 2 units/g substrate of polypeptide of Example 2-1, 40° C., pH 5.5, 24 hours
Method: An aqueous solution, containing as a substrate sucrose, raffinose, erlose, stachyose, lactosucrose, xylosylfructoside, maltose, cellobiose, lactose, inulin or levan in a concentration of 2 w/v %, was mixed with 2 units/g substrate, d.s.b., of a polypeptide obtained by the method in Example 2-1 and reacted at 40° C. and pH 5.5 for 24 hours.
An adequate amount of each reaction mixture was spotted on “KIESELGEL 60”, an aluminum plate for thin layer chromatography (TLC) commercialized by Merck & Co., Inc., Rahway, USA, developed at ambient temperature using a developing solvent system of 1-butanol, pyridine and water (=7:3:1 by volume), and dried. When the reaction mixture contained fructose, the plate was colored by spraying 0.5 N phosphate solution containing 0.2 w/v % naphthoresorcinol, and heated at 110° C. for 5 min, while the plate was colored by spraying a mixture solution of 20 w/v % sulfuric acid in methanol and heated at 110° C. for 10 min.

[3] = Optimum pH; type: biochemical; conditions: incubated at 40° C. for 10 min in 20 mM buffers
[4] = Thermal stability; type: physicochemical; conditions: incubated for 60 min in 50 mM acetate buffer pH 6.0
[5] = Optimum temperature; type: biochemical; conditions: 10 min, 20 mM acetate buffer pH 6.0
[6] = β-fructofuranosidase activity assay (reducing power, Somogyi-Nelson's method); type: biochemical; conditions: sucrose substrate, 20 mM acetate buffer pH 6.0 with 5 mM calcium chloride, 40° C., 10 min
Method: The activity of the present β-fructofuranosidase was assayed as follows: Sucrose as a substrate was dissolved in 20 mM acetate buffer (pH 6.0) containing 5 mM calcium chloride to give a concentration of 0.1 w/v %. To 5 ml of the solution was added 0.2 ml of a test sample, and the mixture was incubated at 40° C. for 10 min, followed by suspending the enzymatic reaction by the addition of 0.2 ml of the Somogyl copper solution and assaying the reducing power of the reaction mixture by the Somogyi-Nelson's method. As a control, a control solution, which was preheated at 100° C. for 10 min to inactivate the enzyme, was treated similarly as above. Under the above reaction conditions, one unit β-frustofuranosidase activity is defined as the amount of enzyme or polypeptide which gives a reducing power equal to that of 2 μmole of glucose per minute.

## CCCCO [1-Butanol]
[1]
  Formation of fructofuranosyl-transferred product: −

## CCCO [1-Propanol]
[1]
  Formation of fructofuranosyl-transferred product: −

## CCC(C)O (centres unmarked) [2-Butanol]
[1]
  Formation of fructofuranosyl-transferred product: −

## CC(C)O [2-Propanol]
[1]
  Formation of fructofuranosyl-transferred product: −

## O=C[C@H](O)[C@@H](O)[C@H](O[C@@H]1O[C@H](CO)[C@@H](O)[C@H](O)[C@H]1O)[C@H](O)CO [Cellobiose]
[1]
  Formation of fructofuranosyl-transferred product: ++
[2]
  action on substrate to release fructose: did not substantially act on

## O=C(CO)[C@@H](O)[C@H](O)[C@H](O)CO [D-Fructose]
[1]
  Formation of fructofuranosyl-transferred product: +

## O=C[C@H](O)[C@@H](O)[C@@H](O)[C@H](O)CO [D-Galactose]
[1]
  Formation of fructofuranosyl-transferred product: ++

## O=C[C@@H](O)[C@@H](O)[C@H](O)[C@H](O)CO [D-Mannose]
[1]
  Formation of fructofuranosyl-transferred product: +

## OC[C@@H](O)[C@@H](O)[C@H](O)[C@@H](O)CO [D-Sorbitol]
[1]
  Formation of fructofuranosyl-transferred product: ++

## OC[C@@H](O)[C@H](O)[C@@H](O)CO [D-Xylitol]
[1]
  Formation of fructofuranosyl-transferred product: ++

## O=C[C@H](O)[C@@H](O)[C@H](O)CO [D-Xylose]
[1]
  Formation of fructofuranosyl-transferred product: ++

## CCO [Ethanol]
[1]
  Formation of fructofuranosyl-transferred product: +

## OCCO [Ethylene glycol]
[1]
  Formation of fructofuranosyl-transferred product: ++

## OCC(O)CO [Glycerol]
[1]
  Formation of fructofuranosyl-transferred product: ++

## OC[C@H]1O[C@H](OC[C@H]2OC(O)[C@H](O)[C@@H](O)[C@@H]2O)[C@H](O)[C@@H](O)[C@@H]1O (some centres unmarked) [Isomaltose]
[1]
  Formation of fructofuranosyl-transferred product: ++

## OC[C@H]1O[C@H](O[C@H]2C(O)O[C@H](CO)[C@@H](O)[C@@H]2O)[C@H](O)[C@@H](O)[C@@H]1O (some centres unmarked) [Kojibiose]
[1]
  Formation of fructofuranosyl-transferred product: +

## O=C[C@H](O)[C@@H](O)[C@@H](O)CO [L-Arabinose]
[1]
  Formation of fructofuranosyl-transferred product: +

## C[C@H](O)[C@H](O)[C@@H](O)[C@@H](O)C=O [L-Rhamnose]
[1]
  Formation of fructofuranosyl-transferred product: +

## O=C(CO)[C@@H](O)[C@H](O)[C@@H](O)CO [L-Sorbose]
[1]
  Formation of fructofuranosyl-transferred product: +

## OC[C@H]1O[C@@H](O[C@H]2[C@H](O)[C@@H](O)C(O)O[C@@H]2CO)[C@H](O)[C@@H](O)[C@H]1O (some centres unmarked) [Lactose]
[1]
  Formation of fructofuranosyl-transferred product: ++
[2]
  action on substrate to release fructose: did not substantially act on

## OC[C@@H](O)[C@@H](O[C@H]1O[C@H](CO)[C@@H](O)[C@H](O)[C@H]1O)[C@H](O)[C@@H](O)CO [Maltitol]
[1]
  Formation of fructofuranosyl-transferred product: ++

## OC[C@H]1O[C@H](O[C@H]2[C@H](O)[C@@H](O)[C@H](O)O[C@@H]2CO)[C@H](O)[C@@H](O)[C@@H]1O [Maltose]
[1]
  Formation of fructofuranosyl-transferred product: ++
[2]
  action on substrate to release fructose: did not substantially act on

## OC[C@H]1O[C@H](OCC2O[C@@H](O)[C@H](O)[C@@H](O)[C@@H]2O)[C@H](O)[C@@H](O)[C@H]1O (some centres unmarked) [Melibiose]
[1]
  Formation of fructofuranosyl-transferred product: ++

## CO [Methanol]
[1]
  Formation of fructofuranosyl-transferred product: +

## OC[C@H]1O[C@@H](O[C@H]2O[C@H](CO)[C@@H](O)[C@H](O)[C@H]2O)[C@H](O)[C@@H](O)[C@@H]1O [Neotrehalose]
[1]
  Formation of fructofuranosyl-transferred product: +

## OC[C@H]1O[C@H](OC[C@H]2OC(O)(CO)[C@@H](O)[C@@H]2O)[C@H](O)[C@@H](O)[C@@H]1O (some centres unmarked) [Palatinose]
[1]
  Formation of fructofuranosyl-transferred product: +

## OC[C@H]1O[C@H](OC[C@H]2O[C@H](O[C@H]3[C@H](O)[C@@H](O)C(O)O[C@@H]3CO)[C@H](O)[C@@H](O)[C@@H]2O)[C@H](O)[C@@H](O)[C@@H]1O (some centres unmarked) [Panose]
[1]
  Formation of fructofuranosyl-transferred product: ++

## OC[C@H]1O[C@H](OC[C@H]2O[C@H](O[C@]3(CO)O[C@H](CO)[C@@H](O)[C@@H]3O)[C@H](O)[C@@H](O)[C@@H]2O)[C@H](O)[C@@H](O)[C@H]1O [Raffinose]
[1]
  Formation of fructofuranosyl-transferred product: +
[2]
  action on substrate to release fructose: acted on

## OC[C@H]1O[C@H](O[C@H]2O[C@H](CO)[C@@H](O)[C@H](O)[C@H]2O)[C@H](O)[C@@H](O)[C@@H]1O [Trehalose]
[1]
  Formation of fructofuranosyl-transferred product: ++

## O=C(CO)[C@@H](O[C@H]1O[C@H](CO)[C@@H](O)[C@H](O)[C@H]1O)[C@H](O)[C@H](O)CO [Turanose]
[1]
  Formation of fructofuranosyl-transferred product: +

## OC[C@H]1O[C@@](CO)(O[C@H]2O[C@H](CO)[C@@H](O[C@H]3O[C@H](CO)[C@@H](O)[C@H](O)[C@H]3O)[C@H](O)[C@H]2O)[C@@H](O)[C@@H]1O [erlose]
[2]
  action on substrate to release fructose: acted on

## OC[C@H]1O[C@@H](O[C@H]2[C@H](O)[C@@H](O)[C@@H](O[C@]3(CO)O[C@H](CO)[C@@H](O)[C@@H]3O)O[C@@H]2CO)[C@H](O)[C@@H](O)[C@H]1O [lactosucrose]
[2]
  action on substrate to release fructose: acted on

## OC[C@H]1O[C@H](OC[C@H]2O[C@H](OC[C@H]3O[C@H](O[C@]4(CO)O[C@H](CO)[C@@H](O)[C@@H]4O)[C@H](O)[C@@H](O)[C@@H]3O)[C@H](O)[C@@H](O)[C@H]2O)[C@H](O)[C@@H](O)[C@H]1O [stachyose]
[2]
  action on substrate to release fructose: acted on

## OC[C@H]1O[C@@](CO)(O[C@H]2O[C@H](CO)[C@@H](O)[C@H](O)[C@H]2O)[C@@H](O)[C@@H]1O [sucrose]
[2]
  action on substrate to release fructose: acted on

## OC[C@H]1O[C@](CO)(O[C@H]2OC[C@@H](O)[C@H](O)[C@H]2O)[C@@H](O)[C@@H]1O [xylosylfructoside]
[2]
  action on substrate to release fructose: acted on

## Maltotriose
[1]
  Formation of fructofuranosyl-transferred product: ++

## inulin
[2]
  action on substrate to release fructose: did not substantially act on

## levan
[2]
  action on substrate to release fructose: did not substantially act on

B1: polypeptide in Example 2-1: polypeptide with β-fructofuranosidase activity produced by transformant BBF4 (Escherichia coli), containing the amino acid sequence of SEQ ID NO:3 (protein)
chain: MNSGDYKEDYGFAHITRADMLKIPGQQNSPQFKVPQFNASAIKNIDSAKGYDKSGNLIDLDVWDSWPLQNADGTAANYHGYHIVSALAGDPKNSDDTPLHLFYQKVGDTSIDSWKNAGRVFEDMDKFVPNDPYLKYQTQEWSGSATLTKDGQVRLFYTDYSGNPEDGGTGAGNQIISTAQVNLSQPDAATLKVDGVSDHKSVFDGGDGTVYQNIQQFIDEGKWISGDNHTLRDPHYVEDKGHKYLVFEANTGTTDGYQGDQSFNNKAYYGGSDVFFQNEKNKLLQSPKKQIASLANGALGIVELADDYTVKSVMKPLVASNTVADEVERANIFKMNNKWYLFTDSRGSKMTSDGINDKDVYMLGPGGDSLNGPHNPINETGLVLNMNLDPADLTHTYSHCGIPHPEGNNVVLTSYMTNRGFYPEHHSHLRDKLGVNIKGSDTSGGENSSGQGQFP
[3]
  optimum pH: 5.5-6.0
[4]
  thermal stability (stable up to temperature): ≤ 45 °C
[5]; in the absence of calcium ion
  optimum temperature: ~45 °C
[5]; in the presence of 5 mM calcium ion
  optimum temperature: about 50 °C
[6]
  specific activity (β-fructofuranosidase): 205 units/mg protein
